Source: publication PMC6138237, “Machine intelligence decrypts β-lapachone as an allosteric 5-lipoxygenase inhibitor” (Chemical Science, 2018)
Read-outs that look alike come from different tables or passages of the source.

Legend:
TRPV1 = TRPV1 (Homo sapiens, UniProt Q8NER1); assay: TRPV1 functional agonist assay, Cerep (intracellular Ca2+); format: cell-based; details: TRPV1 (agonist), 150 µM
Escherichia coli K12 = assay: Minimum inhibitory concentration assay, Escherichia coli; details: concentrations up to 50 µM
CaMK2α = CaMK2α (Homo sapiens, UniProt Q9UQM7); assay: ExpresS Diversity Kinase Profile, Cerep (LANCE): CaMK2α; format: biochemical
TRPM8 = biological target: T1, TRPM8 (Homo sapiens, UniProt Q7Z2W7); assay: TRPM8 functional antagonist assay, Cerep (icilin 100 nM); format: cell-based
T1 construct: Cerep, SA (fee-for-service assay) printed G018533 (citation number 33 glued on)

TRKA = TRKA (Homo sapiens, UniProt P04629); assay: ExpresS Diversity Kinase Profile, Cerep (LANCE): TRKA; format: biochemical
GSK3β = GSK3β (Homo sapiens, UniProt P49841); assay: ExpresS Diversity Kinase Profile, Cerep (LANCE): GSK3β; format: biochemical
ERK2 = ERK2 (Homo sapiens, UniProt P28482); assay: ExpresS Diversity Kinase Profile, Cerep (LANCE): ERK2; format: biochemical
12-LO = biological target: T2, 12-LO (Homo sapiens, UniProt P18054); assay: 12-LO inhibition assay, Cerep (Method A, photometry); format: biochemical
T2 sequence (P18054 1-663): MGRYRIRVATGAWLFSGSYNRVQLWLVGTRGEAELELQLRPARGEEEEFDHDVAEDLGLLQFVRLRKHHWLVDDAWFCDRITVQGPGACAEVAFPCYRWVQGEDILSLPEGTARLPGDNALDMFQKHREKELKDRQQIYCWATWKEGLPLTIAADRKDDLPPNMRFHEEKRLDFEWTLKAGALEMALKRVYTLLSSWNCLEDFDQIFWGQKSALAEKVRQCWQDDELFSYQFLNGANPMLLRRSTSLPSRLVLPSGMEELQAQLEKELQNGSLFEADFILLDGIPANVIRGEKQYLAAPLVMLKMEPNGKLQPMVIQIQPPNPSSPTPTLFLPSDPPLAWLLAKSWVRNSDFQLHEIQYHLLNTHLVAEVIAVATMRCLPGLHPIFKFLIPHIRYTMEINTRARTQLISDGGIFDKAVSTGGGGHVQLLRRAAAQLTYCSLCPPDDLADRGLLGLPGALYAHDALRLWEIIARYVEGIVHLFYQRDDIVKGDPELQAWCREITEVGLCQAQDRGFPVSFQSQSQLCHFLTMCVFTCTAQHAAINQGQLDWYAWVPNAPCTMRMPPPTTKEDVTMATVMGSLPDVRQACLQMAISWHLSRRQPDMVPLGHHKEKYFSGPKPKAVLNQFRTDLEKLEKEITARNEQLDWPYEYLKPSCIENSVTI

EP3 = biological target: T3, EP3 (Homo sapiens, UniProt P43115); assay: EP3 functional agonist assay, Cerep (impedance)
T3 sequence (P43115 1-390): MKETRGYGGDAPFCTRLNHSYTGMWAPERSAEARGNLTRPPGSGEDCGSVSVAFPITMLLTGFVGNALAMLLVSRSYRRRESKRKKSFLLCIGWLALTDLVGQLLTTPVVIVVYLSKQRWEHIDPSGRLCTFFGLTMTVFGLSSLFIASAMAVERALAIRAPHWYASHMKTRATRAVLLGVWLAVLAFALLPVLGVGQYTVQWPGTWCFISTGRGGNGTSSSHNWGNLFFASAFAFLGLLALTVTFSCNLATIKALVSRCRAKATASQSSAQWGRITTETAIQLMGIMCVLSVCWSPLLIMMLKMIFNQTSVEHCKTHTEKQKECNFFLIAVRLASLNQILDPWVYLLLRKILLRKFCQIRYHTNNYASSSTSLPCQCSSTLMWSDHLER

Pim2 = Pim2 (Homo sapiens, UniProt Q9P1W9); assay: ExpresS Diversity Kinase Profile, Cerep (LANCE): Pim2; format: biochemical; details: Flag: Interference
5-LO = biological target: T4, 5-LO (Homo sapiens, UniProt P09917); assay: 5-LO inhibition assay, Cerep (Method A, indirect fluorogenic readout, Rhodamine 123); format: biochemical
T4 sequence (P09917 1-674): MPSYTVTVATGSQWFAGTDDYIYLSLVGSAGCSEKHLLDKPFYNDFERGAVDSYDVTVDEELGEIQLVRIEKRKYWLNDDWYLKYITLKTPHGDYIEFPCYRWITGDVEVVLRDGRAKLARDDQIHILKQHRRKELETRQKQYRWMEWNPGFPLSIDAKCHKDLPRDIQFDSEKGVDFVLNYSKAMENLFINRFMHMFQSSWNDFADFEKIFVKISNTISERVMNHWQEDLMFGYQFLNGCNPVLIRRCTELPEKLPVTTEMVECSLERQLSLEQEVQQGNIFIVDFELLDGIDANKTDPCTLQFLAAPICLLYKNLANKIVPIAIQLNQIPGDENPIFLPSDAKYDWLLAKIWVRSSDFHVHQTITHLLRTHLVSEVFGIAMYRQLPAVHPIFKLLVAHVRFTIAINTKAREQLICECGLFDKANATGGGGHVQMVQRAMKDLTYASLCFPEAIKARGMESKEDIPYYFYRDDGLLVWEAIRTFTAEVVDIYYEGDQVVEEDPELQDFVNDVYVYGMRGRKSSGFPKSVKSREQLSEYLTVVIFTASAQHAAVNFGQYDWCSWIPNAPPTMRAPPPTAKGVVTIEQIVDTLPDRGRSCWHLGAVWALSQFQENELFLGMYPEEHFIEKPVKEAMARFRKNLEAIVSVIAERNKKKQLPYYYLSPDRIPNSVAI

[1] = read-out: % of control values, 1st measurement
[2] = read-out: % of control values, 2nd measurement
[3] = n = 2, read-out: % Inhibition of control values, Mean
[4] = read-out: % Inhibition of control values, 1st measurement
[5] = read-out: % Inhibition of control values, 2nd measurement
[6] = read-out: % inhibition of control values, Mean

TRPV1, sequence (Q8NER1 whole entry): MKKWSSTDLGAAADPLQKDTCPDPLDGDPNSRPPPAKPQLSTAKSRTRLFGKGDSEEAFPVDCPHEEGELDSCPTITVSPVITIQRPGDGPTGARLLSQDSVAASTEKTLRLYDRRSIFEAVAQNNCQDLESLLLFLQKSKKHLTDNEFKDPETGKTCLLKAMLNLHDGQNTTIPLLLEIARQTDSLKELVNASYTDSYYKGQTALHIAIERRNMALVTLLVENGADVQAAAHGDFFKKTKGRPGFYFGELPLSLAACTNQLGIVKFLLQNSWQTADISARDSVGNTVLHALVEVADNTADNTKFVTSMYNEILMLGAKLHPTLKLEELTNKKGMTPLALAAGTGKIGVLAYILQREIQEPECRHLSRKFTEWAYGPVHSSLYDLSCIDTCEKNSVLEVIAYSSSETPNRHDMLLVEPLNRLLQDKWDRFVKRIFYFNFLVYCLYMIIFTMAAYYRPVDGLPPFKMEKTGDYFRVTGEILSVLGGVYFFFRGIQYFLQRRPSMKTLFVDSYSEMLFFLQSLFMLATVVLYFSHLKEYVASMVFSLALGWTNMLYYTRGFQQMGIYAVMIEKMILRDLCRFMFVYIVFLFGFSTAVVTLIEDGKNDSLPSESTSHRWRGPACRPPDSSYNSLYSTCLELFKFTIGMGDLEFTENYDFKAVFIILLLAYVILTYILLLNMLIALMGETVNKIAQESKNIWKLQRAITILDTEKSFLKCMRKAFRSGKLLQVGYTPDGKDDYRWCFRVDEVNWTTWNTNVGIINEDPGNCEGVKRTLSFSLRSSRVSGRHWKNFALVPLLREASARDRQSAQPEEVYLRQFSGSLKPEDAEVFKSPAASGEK
TRKA, sequence (P04629 33-796): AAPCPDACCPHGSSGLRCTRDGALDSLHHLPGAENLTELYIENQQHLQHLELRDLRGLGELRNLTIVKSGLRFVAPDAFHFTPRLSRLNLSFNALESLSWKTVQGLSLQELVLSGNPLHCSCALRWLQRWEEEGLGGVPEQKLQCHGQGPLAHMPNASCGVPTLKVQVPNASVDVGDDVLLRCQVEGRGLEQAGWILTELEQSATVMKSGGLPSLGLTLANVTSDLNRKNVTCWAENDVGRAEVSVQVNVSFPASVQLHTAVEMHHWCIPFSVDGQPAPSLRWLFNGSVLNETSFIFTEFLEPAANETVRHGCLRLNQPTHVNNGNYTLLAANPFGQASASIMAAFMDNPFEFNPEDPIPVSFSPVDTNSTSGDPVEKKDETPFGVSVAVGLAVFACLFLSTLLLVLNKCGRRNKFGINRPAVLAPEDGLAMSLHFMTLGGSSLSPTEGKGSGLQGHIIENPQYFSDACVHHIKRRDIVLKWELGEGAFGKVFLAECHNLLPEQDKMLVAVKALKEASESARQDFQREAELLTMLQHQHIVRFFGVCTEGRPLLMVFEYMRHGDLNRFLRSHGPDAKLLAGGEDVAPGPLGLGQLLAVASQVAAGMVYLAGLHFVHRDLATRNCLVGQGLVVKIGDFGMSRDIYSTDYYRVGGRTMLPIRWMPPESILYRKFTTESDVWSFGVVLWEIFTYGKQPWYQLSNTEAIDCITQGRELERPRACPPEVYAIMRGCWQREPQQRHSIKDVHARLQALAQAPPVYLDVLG
ERK2, sequence (P28482 whole entry): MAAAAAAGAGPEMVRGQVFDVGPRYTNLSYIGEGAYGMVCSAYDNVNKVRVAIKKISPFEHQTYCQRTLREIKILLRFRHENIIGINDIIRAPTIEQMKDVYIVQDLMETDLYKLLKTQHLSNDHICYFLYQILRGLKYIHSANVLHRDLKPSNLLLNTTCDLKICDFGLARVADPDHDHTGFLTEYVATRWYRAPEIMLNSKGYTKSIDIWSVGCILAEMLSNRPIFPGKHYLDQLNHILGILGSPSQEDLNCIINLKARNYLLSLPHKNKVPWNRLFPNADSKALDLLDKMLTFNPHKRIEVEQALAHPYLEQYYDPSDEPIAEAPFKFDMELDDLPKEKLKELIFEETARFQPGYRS
GSK3β, sequence (P49841 whole entry): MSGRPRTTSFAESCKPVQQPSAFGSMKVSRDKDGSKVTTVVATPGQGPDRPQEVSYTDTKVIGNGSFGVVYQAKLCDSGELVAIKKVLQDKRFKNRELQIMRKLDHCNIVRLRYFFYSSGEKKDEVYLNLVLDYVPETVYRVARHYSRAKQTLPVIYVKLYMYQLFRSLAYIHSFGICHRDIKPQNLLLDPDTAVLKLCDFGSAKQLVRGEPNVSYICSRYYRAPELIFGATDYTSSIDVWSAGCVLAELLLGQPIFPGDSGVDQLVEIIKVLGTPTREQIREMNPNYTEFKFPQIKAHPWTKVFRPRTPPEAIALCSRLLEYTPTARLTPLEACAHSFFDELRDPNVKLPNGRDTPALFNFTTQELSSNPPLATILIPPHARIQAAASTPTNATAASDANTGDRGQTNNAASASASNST
CaMK2α, sequence (Q9UQM7 whole entry): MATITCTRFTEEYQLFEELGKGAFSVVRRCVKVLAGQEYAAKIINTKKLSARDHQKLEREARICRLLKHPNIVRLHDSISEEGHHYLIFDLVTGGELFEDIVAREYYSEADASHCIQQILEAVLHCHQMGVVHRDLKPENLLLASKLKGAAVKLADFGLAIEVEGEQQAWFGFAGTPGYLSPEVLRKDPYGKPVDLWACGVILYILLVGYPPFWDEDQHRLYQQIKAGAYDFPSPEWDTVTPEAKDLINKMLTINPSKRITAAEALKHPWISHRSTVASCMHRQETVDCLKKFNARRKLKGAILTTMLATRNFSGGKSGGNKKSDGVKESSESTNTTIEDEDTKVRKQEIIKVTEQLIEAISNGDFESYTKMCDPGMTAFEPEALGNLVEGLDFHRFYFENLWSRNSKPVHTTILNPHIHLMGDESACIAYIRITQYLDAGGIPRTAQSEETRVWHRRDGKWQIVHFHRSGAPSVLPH
Pim2, sequence (Q9P1W9 whole entry): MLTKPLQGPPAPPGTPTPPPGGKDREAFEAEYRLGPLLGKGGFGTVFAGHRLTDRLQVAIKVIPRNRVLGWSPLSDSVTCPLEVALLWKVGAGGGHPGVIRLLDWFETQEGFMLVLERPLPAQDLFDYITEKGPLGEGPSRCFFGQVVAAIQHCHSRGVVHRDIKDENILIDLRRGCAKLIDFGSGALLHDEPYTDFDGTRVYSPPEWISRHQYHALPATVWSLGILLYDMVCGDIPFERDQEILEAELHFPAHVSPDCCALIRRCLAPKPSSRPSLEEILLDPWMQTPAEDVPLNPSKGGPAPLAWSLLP
T1 sequence (Q7Z2W7 whole entry): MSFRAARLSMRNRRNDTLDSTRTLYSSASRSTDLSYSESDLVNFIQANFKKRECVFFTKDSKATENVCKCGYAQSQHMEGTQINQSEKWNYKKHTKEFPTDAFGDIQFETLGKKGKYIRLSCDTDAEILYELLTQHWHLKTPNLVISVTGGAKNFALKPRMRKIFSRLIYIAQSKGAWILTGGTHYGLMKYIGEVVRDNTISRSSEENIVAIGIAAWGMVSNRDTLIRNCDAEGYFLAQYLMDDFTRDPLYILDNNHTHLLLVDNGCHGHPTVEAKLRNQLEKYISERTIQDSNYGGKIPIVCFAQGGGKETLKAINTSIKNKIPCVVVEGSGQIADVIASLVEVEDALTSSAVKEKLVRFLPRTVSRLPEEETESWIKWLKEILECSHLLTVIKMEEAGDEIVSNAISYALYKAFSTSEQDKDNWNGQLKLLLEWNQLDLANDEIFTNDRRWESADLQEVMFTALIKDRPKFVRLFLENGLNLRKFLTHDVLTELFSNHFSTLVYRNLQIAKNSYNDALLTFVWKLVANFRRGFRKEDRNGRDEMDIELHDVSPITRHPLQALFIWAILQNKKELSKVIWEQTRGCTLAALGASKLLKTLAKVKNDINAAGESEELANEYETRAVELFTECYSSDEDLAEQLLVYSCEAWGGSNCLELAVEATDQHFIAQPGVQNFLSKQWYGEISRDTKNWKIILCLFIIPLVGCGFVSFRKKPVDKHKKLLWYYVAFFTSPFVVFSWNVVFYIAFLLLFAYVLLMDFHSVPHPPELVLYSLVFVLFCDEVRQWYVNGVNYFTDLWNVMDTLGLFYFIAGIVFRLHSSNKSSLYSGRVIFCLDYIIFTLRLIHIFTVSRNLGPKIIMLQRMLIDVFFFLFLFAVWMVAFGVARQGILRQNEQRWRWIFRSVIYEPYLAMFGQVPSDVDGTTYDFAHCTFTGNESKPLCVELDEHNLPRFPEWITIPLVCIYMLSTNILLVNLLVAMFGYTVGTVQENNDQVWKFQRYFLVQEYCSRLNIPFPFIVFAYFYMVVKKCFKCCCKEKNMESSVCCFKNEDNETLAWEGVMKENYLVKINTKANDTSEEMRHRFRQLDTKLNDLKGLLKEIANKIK

CC1(C)CCC2=C(O1)c1ccccc1C(=O)C2=O [β-Lapachone]
remaining activity at 150 µM (TRPV1; n = 2, read-out: % of control values, Mean): -4.6%
remaining activity at 150 µM (TRPV1; [1]): -7.3%
remaining activity at 150 µM (TRPV1; [2]): -1.9%
phenotypic effects on Escherichia coli (Escherichia coli K12): No phenotypic effects
inhibition at 150 µM (CaMK2α; [3]): 54.8%
inhibition at 150 µM (CaMK2α; [4]): 61.5%
inhibition at 150 µM (CaMK2α; [5]): 48%
IC50 (TRPM8): > 100000 nM
inhibition at 150 µM (TRKA; Flag: Interference, read-out: % Inhibition of control values, 1st measurement): 38.1%
inhibition at 150 µM (TRKA; Flag: Interference, read-out: % Inhibition of control values, 2nd measurement): 45.7%
inhibition at 150 µM (TRKA; n = 2, Flag: Interference, read-out: % Inhibition of control values, Mean): 41.9%
inhibition at 150 µM (GSK3β; [3]): 94.2%
inhibition at 150 µM (GSK3β; [4]): 95%
inhibition at 150 µM (GSK3β; [5]): 93.4%
inhibition at 150 µM (ERK2; [3]): 45.9%
inhibition at 150 µM (ERK2; [4]): 44.8%
inhibition at 150 µM (ERK2; [5]): 46.9%
inhibition at 5 µM (12-LO; 12-LO, 5 µM, read-out: % inhibition of control values, 1st measure): 40.7%
inhibition at 5 µM (12-LO; 12-LO, 5 µM, read-out: % inhibition of control values, 2nd measure): 35.3%
inhibition at 5 µM (12-LO; [6]): 38%
remaining activity at 150 µM (EP3; [1]): 18.6%
remaining activity at 150 µM (EP3; [2]): 15.5%
remaining activity at 150 µM (EP3; read-out: % of control values, Mean): 17%
inhibition at 150 µM (Pim2; [4]): 79.6%
inhibition at 150 µM (Pim2; [5]): 82.6%
ligand efficiency (LE) (5-LO; 5-LO): 0.44
inhibition at 5 µM (5-LO; 5-LO, n = 2, read-out: % inhibition of control values, Mean): 102%
inhibition at 5 µM (5-LO; 5-LO, read-out: % inhibition of control values, 1st measure): 103%
inhibition at 5 µM (5-LO; 5-LO, read-out: % inhibition of control values, 2nd measure): 99.8%
inhibition at 150 µM (5-LO; 5-LO, 150 µM, read-out: % inhibition of control values, 1st measure): 98.4%
inhibition at 150 µM (5-LO; 5-LO, 150 µM, read-out: % inhibition of control values, 2nd measure): 92.9%
IC50 (5-LO; 5-LO, indirect fluorogenic readout, read-out: Experimental –log(IC50 or KD) (converted)): 2510 nM
ligand efficiency (LE) (5-LO; 5-LO, listed as 1): > 0.30
IC50 (5-LO; IC50, 5-LO, indirect fluorescence detection (Cerep), n = 2): 2100 nM
inhibition at 150 µM (5-LO; [6]): 95.7%
